Source: patent US11753407B2, “Compounds for treating spinal muscular atrophy” (PTC Therapeutics, Inc., priority 2012, dated 2023)

What was measured:
[1] = tested on: SMN2 minigene mRNA (SMN2-A minigene) in HEK293H cells; test: SMN2 minigene mRNA splicing RT-qPCR assay in cultured cells; format: cell-based, human; settings: Homo sapiens, HEK293-H; concentration increasing full length SMN2 mRNA 1.5-fold relative to vehicle-treated cells; HEK293H cells with SMN2-A minigene, 24 hours, 7-point concentration data; read-out: EC1.5x for production of full length SMN2 mRNA
In short: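 EC1.5× = concentration raising full-length SMN2 minigene mRNA 1.5-fold over vehicle, from 7-point curves in duplicate. Stably transfected HEK293H cells exposed 24 h at 37 °C; lysates assayed by multiplex RT-qPCR, minigene FL signal normalized to GAPDH via modified ΔΔCt.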

[2] = tested on: Smn protein in SMA patient fibroblast cells (GM03813); test: Smn protein assay in cultured cells (SMN HTRF); format: cell-based, human; settings: SMA patient fibroblast cells, 48 hours; for maximum fold (Fold) increase of Smn protein: 7-point concentration data, fold relative to vehicle control; for EC1.5x for Smn protein expression: 7-point concentration curve, SMN HTRF, concentration producing 1.5 times Smn protein vs DMSO vehicle control
In short: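 Smn protein quantified by HTRF with anti-SMN d2/kryptate pair, 665/620 nm ratio blank-corrected, in RIPA lysates of GM03813 fibroblasts after 48 h compound exposure (7 concentrations, 3.16-fold steps, triplicates). Values: concentration producing 1.5× vehicle Smn level, and maximal fold increase.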

melting point | Structure (SMILES) | EC (1.5-fold increase) [1] | maximum fold (Fold) increase of Smn protein [2] | EC1.5x for Smn protein expression [2]
288 to 290 °C | Cc1nc2ccc(-c3cc(=O)n4cc(N5CCC(N)CC5)ccc4c3)cc2o1 [Compound 326, 7-(4-aminopiperidin-1-yl)-2-(2-methyl-1,3-benzoxazol-6-yl)-4H-quinolizin-4-one] | 1 to 3 µM | *** (a fold increase between >1.35 and ≤1.5 is indicated by three stars (***)) | ** (an EC1.5× between >1 μM and ≤3 μM is indicated by two stars (**))
198 to 202 °C | COc1ccc(-c2cc(=O)n3cc(N4CCN[C@@H](C)C4)cc(C)c3n2)cc1F [Compound 327, 2-(3-fluoro-4-methoxyphenyl)-9-methyl-7-[(3S)-3-methylpiperazin-1-yl]-4H-pyrido[1,2-a]pyrimidin-4-one] | < 0.1 µM | **** (a fold increase between >1.5 and ≤1.65 is indicated by four stars (****)) | **** (an EC1.5x≤0.3 μM is indicated by four stars (****))
141 to 145 °C | COc1ccc(-c2cc(=O)n3cc(N4CCC(N(C)C)CC4)cc(C)c3n2)cc1F [Compound 328, 7-[4-(dimethylamino)piperidin-1-yl]-2-(3-fluoro-4-methoxyphenyl)-9-methyl-4H-pyrido[1,2-a]pyrimidin-4-one] | < 0.1 µM | *** (a fold increase between >1.35 and ≤1.5 is indicated by three stars (***)) | –
198 to 203 °C | COc1ccc(-c2cc(=O)n3cc(C4CCN(C)CC4)cc(C)c3n2)cc1F [Compound 329, 2-(3-fluoro-4-methoxyphenyl)-9-methyl-7-(1-methylpiperidin-4-yl)-4H-pyrido[1,2-a]pyrimidin-4-one] | < 0.1 µM | **** (a fold increase between >1.5 and ≤1.65 is indicated by four stars (****)) | ** (an EC1.5× between >1 μM and ≤3 μM is indicated by two stars (**))
141 °C | COc1ccc(-c2cc(=O)n3cc(N4CCC(NC5CC5)CC4)cc(C)c3n2)cc1OC [Compound 330, 7-[4-(cyclopropylamino)piperidin-1-yl]-2-(3,4-dimethoxyphenyl)-9-methyl-4H-pyrido[1,2-a]pyrimidin-4-one] | 0.1 to 0.3 µM | ** (a fold increase between >1.2 and ≤1.35 is indicated by two stars (**)) | –
258 to 262 °C | Cc1cn2cc(-c3cc(=O)n4cc(N5CCN(C)[C@@H](C)C5)ccc4n3)cc(Cl)c2n1 [Compound 331, 2-(8-chloro-2-methylimidazo[1,2-a]pyridin-6-yl)-7-[(3S)-3,4-dimethylpiperazin-1-yl]-4H-pyrido[1,2-a]pyrimidin-4-one] | < 0.1 µM | ***** (a fold increase >1.65 is indicated by five stars (*****)) | **** (an EC1.5x≤0.3 μM is indicated by four stars (****))
225 to 233 °C | COc1ccc(-c2cc(=O)n3cc(N4C[C@@H](C)N[C@@H](C)C4)cc(C)c3n2)cc1OC [Compound 332, 2-(3,4-dimethoxyphenyl)-7-[(3R,5S)-3,5-dimethylpiperazin-1-yl]-9-methyl-4H-pyrido[1,2-a]pyrimidin-4-one] | 0.3 to 1 µM | * (A maximum fold increase of ≤1.2 is indicated by one star (*)) | –
148 °C | COc1ccc(-c2cc(=O)n3cc(N4CCN(C)[C@H](C)C4)cc(C)c3n2)cc1OC [Compound 333, 2-(3,4-dimethoxyphenyl)-7-[(3R)-3,4-dimethylpiperazin-1-yl]-9-methyl-4H-pyrido[1,2-a]pyrimidin-4-one] | 0.1 to 0.3 µM | **** (a fold increase between >1.5 and ≤1.65 is indicated by four stars (****)) | ** (an EC1.5× between >1 μM and ≤3 μM is indicated by two stars (**))
169 to 171 °C | Cc1cn2nc(-c3cc(=O)n4cc(N5CCCN(C)CC5)ccc4n3)cc2c(C)n1 [Compound 334, 2-(4,6-dimethylpyrazolo[1,5-a]pyrazin-2-yl)-7-(4-methyl-1,4-diazepan-1-yl)-4H-pyrido[1,2-a]pyrimidin-4-one] | < 0.1 µM | ***** (a fold increase >1.65 is indicated by five stars (*****)) | **** (an EC1.5x≤0.3 μM is indicated by four stars (****))
215 to 218 °C | Cc1cn2nc(-c3cc(=O)n4cc(N5CCN6CCC[C@H]6C5)ccc4n3)cc2c(C)n1 [Compound 336, 2-(4,6-dimethylpyrazolo[1,5-a]pyrazin-2-yl)-7-[(8aS)-hexahydropyrrolo[1,2-a]pyrazin-2(1H)-yl]-4H-pyrido[1,2-a]pyrimidin-4-one] | 0.1 to 0.3 µM | ***** (a fold increase >1.65 is indicated by five stars (*****)) | **** (an EC1.5x≤0.3 μM is indicated by four stars (****))

More lines, now with the values behind:

Structure (SMILES) | melting point | EC (1.5-fold increase) [1] | maximum fold (Fold) increase of Smn protein [2] | EC1.5x for Smn protein expression [2]
COc1ccc(-c2cc(=O)n3cc(N4C[C@H]5CCCN(C)[C@H]5C4)ccc3n2)cc1F [Compound 313, 2-(3-fluoro-4-methoxyphenyl)-7-[(4aR,7aR)-1-methyloctahydro-6H-pyrrolo[3,4-b]pyridin-6-yl]-4H-pyrido[1,2-a]pyrimidin-4-one] | 223 to 227 °C | 1 to 3 µM | * (A maximum fold increase of ≤1.2 is indicated by one star (*)) | –
COc1ccc(-c2cc(=O)n3cc(N4CCN[C@H](C)C4)cc(C)c3n2)cc1OC [Compound 314, 2-(3,4-dimethoxyphenyl)-9-methyl-7-[(3R)-3-methylpiperazin-1-yl]-4H-pyrido[1,2-a]pyrimidin-4-one] | 177 to 184 °C | < 0.1 µM | **** (a fold increase between >1.5 and ≤1.65 is indicated by four stars (****)) | *** (an EC1.5× between >0.3 μM and ≤1 μM is indicated by three stars (***))
COc1ccc(-c2cc(=O)n3cc(C4=CCN(C)CC4)cc(C)c3n2)cc1F [Compound 315, 2-(3-fluoro-4-methoxyphenyl)-9-methyl-7-(1-methyl-1,2,3,6-tetrahydropyridin-4-yl)-4H-pyrido[1,2-a]pyrimidin-4-one] | 184 to 190 °C | < 0.1 µM | *** (a fold increase between >1.35 and ≤1.5 is indicated by three stars (***)) | –
COc1ccc(-c2ccc3nc(C4CCNCC4)cc(=O)n3c2)cc1F [Compound 316, 7-(3-fluoro-4-methoxyphenyl)-2-(piperidin-4-yl)-4H-pyrido[1,2-a]pyrimidin-4-one] | 278 to 281 °C | 0.1 to 0.3 µM | ***** (a fold increase >1.65 is indicated by five stars (*****)) | ** (an EC1.5× between >1 μM and ≤3 μM is indicated by two stars (**))
COc1ccc(-c2ccc3nc(C4CCN(C)CC4)cc(=O)n3c2)cc1F [Compound 317, 7-(3-fluoro-4-methoxyphenyl)-2-(1-methylpiperidin-4-yl)-4H-pyrido[1,2-a]pyrimidin-4-one] | 202 to 205 °C | 0.3 to 1 µM | **** (a fold increase between >1.5 and ≤1.65 is indicated by four stars (****)) | ** (an EC1.5× between >1 μM and ≤3 μM is indicated by two stars (**))
CCN1CC=C(c2ccc3nc(-c4cc(F)c5nc(C)oc5c4)cc(=O)n3c2)CC1 [Compound 318, 7-(1-ethyl-1,2,3,6-tetrahydropyridin-4-yl)-2-(4-fluoro-2-methyl-1,3-benzoxazol-6-yl)-4H-pyrido[1,2-a]pyrimidin-4-one] | 151 to 154 °C | < 0.1 µM | ***** (a fold increase >1.65 is indicated by five stars (*****)) | **** (an EC1.5x≤0.3 μM is indicated by four stars (****))
CCCN1CC=C(c2ccc3nc(-c4cc(F)c5nc(C)oc5c4)cc(=O)n3c2)CC1 [Compound 319, 2-(4-fluoro-2-methyl-1,3-benzoxazol-6-yl)-7-(1-propyl-1,2,3,6-tetrahydropyridin-4-yl)-4H-pyrido[1,2-a]pyrimidin-4-one] | 159 to 162 °C | < 0.1 µM | **** (a fold increase between >1.5 and ≤1.65 is indicated by four stars (****)) | **** (an EC1.5x≤0.3 μM is indicated by four stars (****))
CCN1CCN(c2ccc3cc(-c4ccc5nc(C)oc5c4)cc(=O)n3c2)C[C@@H]1C [Compound 324, 7-[(3S)-4-ethyl-3-methylpiperazin-1-yl]-2-(2-methyl-1,3-benzoxazol-6-yl)-4H-quinolizin-4-one] | 288 to 290 °C | 0.3 to 1 µM | *** (a fold increase between >1.35 and ≤1.5 is indicated by three stars (***)) | –
Cc1nc2ccc(-c3cc(=O)n4cc(N5CCN(C)[C@@H](C)C5)ccc4c3)cc2o1 [Compound 325, 7-[(3S)-3,4-dimethylpiperazin-1-yl]-2-(2-methyl-1,3-benzoxazol-6-yl)-4H-quinolizin-4-one] | > 300 °C | 0.3 to 1 µM | *** (a fold increase between >1.35 and ≤1.5 is indicated by three stars (***)) | –
